# Assay results published in patent publication US20260022142A1, “MACROCYCLIC IMMUNOMODULATORS” (Bristol-Myers Squibb Company, priority 2022, published 2026).
# Numbered stars: 1 amine (or outer) side, 2 acyl side, 3 side chain; on linkers, the order of the positions; unused ones are H or OH. Bridge positions count the residues as written; N and C are the ends. Square brackets hold non-standard residues; d marks the D form. Peptide text beside a SMILES is read from it. * marks the point of attachment. ξ: configuration not given here. Phe(3-CF3) = N[C@@H](Cc1cccc(C(F)(F)F)c1)C(=O)O; Tyr(3,5-F2) = N[C@@H](Cc1cc(F)c(O)c(F)c1)C(=O)O; Phe(4-COOH) = N[C@@H](Cc1ccc(C(=O)O)cc1)C(=O)O; d(γGlu) = O=C(O)[C@@H](CCC(=O)[*:2])N[*:1]; Bip = N[C@@H](Cc1ccc(-c2ccccc2)cc1)C(=O)O; Phe(3-Me) = Cc1cccc(C[C@H](N)C(=O)O)c1; Val(3-OH) = CC(C)(O)[C@H](N)C(=O)O; X8 = CC(C)(F)C(N[*:1])C(=O)[*:2]; Cha = N[C@@H](CC1CCCCC1)C(=O)O; Ile(3ξ) = CCC(C)[C@H](N)C(=O)O; Thr(3ξ) = CC(O)[C@H](N)C(=O)O; Tle = CC(C)(C)[C@H](N)C(=O)O; Carboxymethyl = O=C(O)C*; Orn = NCCC[C@H](N)C(=O)O; Aun = NCCCCCCCCCCC(=O)O; Dab = NCC[C@H](N)C(=O)O; Dap = NC[C@H](N)C(=O)O; AEEA = NCCOCCOCC(=O)O
# Molecular target: T1, PD-1/PD-L1 interaction (PE-labeled human PD-L1-Ig binding to Jurkat cell line over-expressing human PD-1) (Homo sapiens, UniProt Q15116)
# T1 construct: expressed in transfected cells; host or cells: Jurkat
# T1 sequence (Q15116 25-288): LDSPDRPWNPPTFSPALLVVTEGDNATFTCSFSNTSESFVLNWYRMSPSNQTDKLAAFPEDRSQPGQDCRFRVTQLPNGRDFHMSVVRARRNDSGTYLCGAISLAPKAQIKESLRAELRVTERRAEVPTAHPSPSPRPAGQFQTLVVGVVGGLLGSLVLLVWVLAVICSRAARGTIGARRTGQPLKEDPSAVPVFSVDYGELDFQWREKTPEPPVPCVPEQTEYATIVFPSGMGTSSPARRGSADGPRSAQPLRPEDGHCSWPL
# Assay: Jurkat-PD-1 Cell Binding High-Content Screening Assay (CBA)
# Type: cell-based
# Conditions: Jurkat cell line over-expressing human PD-1; PE-labeled PD-L1-Ig 20 nM final; read-out: Jurkat hPD1-PDL1 IC50
# Outline: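 Binding of fluorescent PD-L1-Ig (phycoerythrin on Ig tag, 20 nM final, 1 h) measured by high-content imaging of fixed, Hoechst-counterstained Jurkat-hPD-1 cells. Compound added 2 h at 37° C beforehand, in DMEM with 10% fetal calf serum.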
row,SMILES,IC50 [nM]
1,Cc1cccc(C[C@@H]2NC(=O)[C@H](CC(=O)O)NC(=O)[C@H](Cc3ccc(OCC(=O)O)cc3)NC(=O)[C@H](CCCNC(=N)N)NC(=O)CSC[C@@H](C(=O)N[C@@H](CCN)C(=O)NCCCCCCCCCCC(=O)O)NC(=O)[C@H](CO)NC(=O)[C@H](C(C)(C)C)NC(=O)[C@H](CC3CCCCC3)NC(=O)[C@H](CCN)NC(=O)[C@@H](CC(C)C)NC(=O)[C@H](CCCN)NC(=O)[C@H](Cc3ccc(OCC(=O)O)cc3)NC(=O)[C@H](Cc3ccc(-c4ccccc4)cc3)NC(=O)[C@H](Cc3c[nH]c4ccccc34)NC2=O)c1 [Compound 3531] ({CH2CO}-RY(Carboxymethyl)D[Phe(3-Me)]W[Bip]Y(Carboxymethyl)[Orn][dL][Dab][Cha][Tle]SC[Dab][Aun]-OH; thioether N-14),48.6
2,CC[C@H](C)[C@@H]1NC(=O)[C@H](Cc2ccc(-c3ccccc3)cc2)NC(=O)[C@H](C(C)C)NC(=O)[C@H](Cc2cccc(C)c2)NC(=O)[C@H](CC(=O)O)NC(=O)[C@H](Cc2ccc(OCC(=O)O)cc2)NC(=O)[C@H](CN)NC(=O)CSC[C@@H](C(=O)NCCOCCOCC(=O)N[C@@H](CCN)C(=O)NCCCCCCCCCCC(=O)O)NC(=O)[C@H](CCCN)NC(=O)[C@H](C(C)C)NC(=O)[C@H](CC2CCCCC2)NC(=O)[C@H](CCN)NC(=O)[C@@H](CC(C)C)NC(=O)[C@H](CCCN)NC1=O [Compound 2630] ({CH2CO}-[Dap]Y(Carboxymethyl)D[Phe(3-Me)]V[Bip]I[Orn][dL][Dab][Cha]V[Orn]C[AEEA][Dab][Aun]-OH; thioether N-14),9.9
3,CC(=O)NCCCC[C@@H]1NC(=O)[C@H](C(C)C)NC(=O)[C@H](CC2CCCCC2)NC(=O)[C@H](CCN)NC(=O)[C@@H](CC(C)C)NC(=O)[C@H](CCCN)NC(=O)[C@H](Cc2ccc(O)cc2)NC(=O)[C@H](Cc2ccc(-c3ccccc3)cc2)NC(=O)[C@H](C(C)C)NC(=O)[C@H](Cc2c[nH]c3ccccc23)NC(=O)[C@H](CC(=O)O)NC(=O)[C@H](Cc2ccc(OCC(=O)O)cc2)NC(=O)[C@H](CCCNC(=N)N)NC(=O)CSC[C@@H](C(=O)NCCOCCOCC(=O)N[C@H](CCC(=O)NCCCCCCCCCCC(=O)O)C(=O)O)NC1=O [Compound 3401] ({CH2CO}-RY(Carboxymethyl)DWV[Bip]Y[Orn][dL][Dab][Cha]VK(Ac)C[AEEA][d(γGlu)][Aun]-OH; thioether N-14),6.9
4,Cc1cccc(C[C@@H]2NC(=O)[C@H](CC(=O)O)NC(=O)[C@H](Cc3ccc(OCC(=O)O)cc3)NC(=O)[C@H](Cc3ccc(OCC(=O)O)cc3)NC(=O)CSC[C@@H](C(=O)NCC(=O)N[C@@H](CCCN)C(=O)NCCCCCCCCCCC(=O)O)NC(=O)[C@H](CO)NC(=O)[C@H](C(C)C)NC(=O)[C@H](CC3CCCCC3)NC(=O)[C@H](CCN)NC(=O)[C@@H](CC(C)C)NC(=O)[C@H](CCCN)NC(=O)[C@H](C(C)C)NC(=O)[C@H](Cc3ccc(-c4ccccc4)cc3)NC(=O)[C@H](CC(C)C)NC2=O)c1 [Compound 1071] ({CH2CO}-Y(Carboxymethyl)Y(Carboxymethyl)D[Phe(3-Me)]L[Bip]V[Orn][dL][Dab][Cha]VSCG[Orn][Aun]-OH; thioether N-14),42.5
5,CC(C)C[C@H]1NC(=O)[C@H](CCCN)NC(=O)[C@H](Cc2ccc(O)cc2)NC(=O)[C@H](Cc2ccc(-c3ccccc3)cc2)NC(=O)[C@H](C(C)C)NC(=O)[C@H](Cc2c[nH]c3ccccc23)NC(=O)[C@H](CC(=O)O)NC(=O)[C@H](Cc2ccc(OCC(=O)O)cc2)NC(=O)[C@H](CCCNC(=N)N)NC(=O)CSC[C@@H](C(=O)N[C@@H](CCN)C(=O)NCCCCCCCCCCC(=O)O)NC(=O)[C@H](CCC(=O)O)NC(=O)[C@H](C(C)C)NC(=O)[C@H](CC2CCCCC2)NC(=O)[C@H](CCN)NC1=O [Compound 3349] ({CH2CO}-RY(Carboxymethyl)DWV[Bip]Y[Orn][dL][Dab][Cha]VEC[Dab][Aun]-OH; thioether N-14),8.5
6,Cc1cccc(C[C@@H]2NC(=O)[C@H](CC(=O)O)NC(=O)[C@H](Cc3ccc(OCC(=O)O)cc3)NC(=O)[C@H](CCN)NC(=O)CSC[C@@H](C(=O)N[C@@H](CCN)C(=O)NCCOCCOCC(=O)NCCOCCOCC(=O)NCCCCCCCCCCC(=O)O)NC(=O)[C@H](Cc3cnc[nH]3)NC(=O)[C@H](C(C)C)NC(=O)[C@H](CC3CCCCC3)NC(=O)[C@H](CCN)NC(=O)[C@@H](CC(C)C)NC(=O)[C@H](CCCN)NC(=O)[C@H](Cc3ccc(C(=O)O)cc3)NC(=O)[C@H](Cc3ccc(-c4ccccc4)cc3)NC(=O)[C@H](Cc3ccc(C(=O)O)cc3)NC2=O)c1 [Compound 3757] ({CH2CO}-[Dab]Y(Carboxymethyl)D[Phe(3-Me)][Phe(4-COOH)][Bip][Phe(4-COOH)][Orn][dL][Dab][Cha]VHC[Dab][AEEA][AEEA][Aun]-OH; thioether N-14),2.6
7,Cc1cccc(C[C@@H]2NC(=O)[C@H](CC(=O)O)NC(=O)[C@H](Cc3ccc(OCC(=O)O)cc3)NC(=O)[C@H](CN)NC(=O)CSC[C@@H](C(=O)N[C@@H](CCN)C(=O)NCCCCCCCCCCC(=O)O)NC(=O)[C@@H](CCC(N)=O)NC(=O)[C@H](C(C)C)NC(=O)[C@H](CC(C)C)NC(=O)[C@H](CCN)NC(=O)[C@@H](CC(C)C)NC(=O)[C@H](CCCN)NC(=O)[C@H](Cc3ccc(O)cc3)NC(=O)[C@H](Cc3ccc(-c4ccccc4)cc3)NC(=O)[C@H](C(C)C)NC2=O)c1 [Compound 2770] ({CH2CO}-[Dap]Y(Carboxymethyl)D[Phe(3-Me)]V[Bip]Y[Orn][dL][Dab]LV[dQ]C[Dab][Aun]-OH; thioether N-14),37.8
8,CC(C)C[C@H]1NC(=O)[C@H](CCCN)NC(=O)[C@H](Cc2ccc(OCC(=O)O)cc2)NC(=O)[C@H](Cc2ccc(-c3ccccc3)cc2)NC(=O)[C@H](Cc2ccc(OCC(=O)O)cc2)NC(=O)[C@H](Cc2cccc(C(F)(F)F)c2)NC(=O)[C@H](CC(=O)O)NC(=O)[C@H](Cc2ccc(OCC(=O)O)cc2)NC(=O)[C@H](C(C)O)NC(=O)CSC[C@@H](C(=O)N[C@@H](CCN)C(=O)NCCCCCCCCCCC(=O)O)NC(=O)[C@H](CO)NC(=O)[C@H](C(C)(C)O)NC(=O)[C@H](CC2CCCCC2)NC(=O)[C@H](CCN)NC1=O (stereo partly drawn) [Compound 3818] ({CH2CO}-[Thr(3ξ)]Y(Carboxymethyl)D[Phe(3-CF3)]Y(Carboxymethyl)[Bip]Y(Carboxymethyl)[Orn][dL][Dab][Cha][Val(3-OH)]SC[Dab][Aun]-OH; thioether N-14),3.9

# The remaining compounds from weak to strong by IC50, led by results:
row,IC50 [nM],SMILES
1,43.8,Cc1cccc(C[C@@H]2NC(=O)[C@H](CC(=O)O)NC(=O)[C@H](Cc3ccc(OCC(=O)O)cc3)NC(=O)[C@H](Cc3ccc(OCC(=O)O)cc3)NC(=O)CSC[C@@H](C(=O)N[C@@H](CCN)C(=O)NCCCCCCCCCCC(=O)O)NC(=O)[C@H](CO)NC(=O)[C@H](C(C)C)NC(=O)[C@H](CC3CCCCC3)NC(=O)[C@H](CCN)NC(=O)[C@@H](CC(C)C)NC(=O)[C@H](CCCN)NC(=O)[C@H](Cc3ccc(OCC(=O)O)cc3)NC(=O)[C@H](Cc3ccc(-c4ccccc4)cc3)NC(=O)[C@H](C(C)C)NC2=O)c1 [Compound 2089] ({CH2CO}-Y(Carboxymethyl)Y(Carboxymethyl)D[Phe(3-Me)]V[Bip]Y(Carboxymethyl)[Orn][dL][Dab][Cha]VSC[Dab][Aun]-OH; thioether N-14)
2,37.4,CC(C)C[C@H]1NC(=O)[C@H](CCCN)NC(=O)[C@H](Cc2ccc(O)cc2)NC(=O)[C@H](Cc2ccc(-c3ccccc3)cc2)NC(=O)[C@H](C(C)C)NC(=O)[C@H](Cc2c[nH]c3ccccc23)NC(=O)[C@H](CC(=O)O)NC(=O)[C@H](Cc2ccc(OCC(=O)O)cc2)NC(=O)[C@H](C(C)O)NC(=O)CSC[C@@H](C(=O)N[C@@H](CCN)C(=O)NCCCCCCCCCCC(=O)O)NC(=O)[C@H](CN)NC(=O)[C@H](C(C)O)NC(=O)[C@H](CC2CCCCC2)NC(=O)[C@H](CCN)NC1=O (stereo partly drawn) [Compound 3667] ({CH2CO}-[Thr(3ξ)]Y(Carboxymethyl)DWV[Bip]Y[Orn][dL][Dab][Cha][Thr(3ξ)][Dap]C[Dab][Aun]-OH; thioether N-14)
3,19.1,CCC(C)[C@@H]1NC(=O)[C@H](Cc2ccc(-c3ccccc3)cc2)NC(=O)[C@H](C(C)C)NC(=O)[C@H](Cc2c[nH]c3ccccc23)NC(=O)[C@H](CC(=O)O)NC(=O)[C@H](Cc2ccc(OCC(=O)O)cc2)NC(=O)[C@H](CO)NC(=O)CSC[C@@H](C(=O)N[C@@H](CCCN)C(=O)NCCCCCCCCCCC(=O)O)NC(=O)[C@H](C(C)O)NC(=O)[C@H](C(C)C)NC(=O)[C@H](CC2CCCCC2)NC(=O)[C@H](CCN)NC(=O)[C@@H](CC(C)C)NC(=O)[C@H](CCCN)NC1=O (stereo partly drawn) [Compound 3099] ({CH2CO}-SY(Carboxymethyl)DWV[Bip][Ile(3ξ)][Orn][dL][Dab][Cha]V[Thr(3ξ)]C[Orn][Aun]-OH; thioether N-14)
4,13.1,Cc1cccc(C[C@@H]2NC(=O)[C@H](CC(=O)O)NC(=O)[C@H](Cc3ccc(OCC(=O)O)cc3)NC(=O)[C@H](CCCNC(=N)N)NC(=O)CSC[C@@H](C(=O)N[C@@H](CCN)C(=O)NCCCCCCCCCCC(=O)O)NC(=O)[C@H]([C@@H](C)O)NC(=O)C(C(C)(C)F)NC(=O)[C@H](CC3CCCCC3)NC(=O)[C@H](CCN)NC(=O)[C@@H](CC(C)C)NC(=O)[C@H](CCCN)NC(=O)[C@H](Cc3ccc(OCC(=O)O)cc3)NC(=O)[C@H](Cc3ccc(-c4ccccc4)cc3)NC(=O)[C@H](Cc3ccc(O)cc3)NC2=O)c1 (stereo partly drawn) [Compound 2264] ({CH2CO}-RY(Carboxymethyl)D[Phe(3-Me)]Y[Bip]Y(Carboxymethyl)[Orn][dL][Dab][Cha][X8]TC[Dab][Aun]-OH; thioether N-14)
5,4.7,"Cc1cccc(C[C@@H]2NC(=O)[C@H](CC(=O)O)NC(=O)[C@H](Cc3ccc(OCC(=O)O)cc3)NC(=O)[C@H](CN)NC(=O)CSC[C@@H](C(=O)N[C@@H](CCN)C(=O)NCCOCCOCC(=O)NCCCCCCCCCCC(=O)O)NC(=O)[C@H](CCCN)NC(=O)[C@H](C(C)C)NC(=O)[C@H](CC3CCCCC3)NC(=O)[C@H](CCN)NC(=O)[C@@H](CC(C)C)NC(=O)[C@H](CCCN)NC(=O)[C@H](Cc3cc(F)c(O)c(F)c3)NC(=O)[C@H](Cc3ccc(-c4ccccc4)cc3)NC(=O)[C@H](Cc3ccc(O)cc3)NC2=O)c1 [Compound 2058] ({CH2CO}-[Dap]Y(Carboxymethyl)D[Phe(3-Me)]Y[Bip][Tyr(3,5-F2)][Orn][dL][Dab][Cha]V[Orn]C[Dab][AEEA][Aun]-OH; thioether N-14)"
